Measurements taken from patent publication US5516796A, “Thioprostaglandins and -prostaglandin-like compounds and therapeutic uses thereof” (Kabi Pharmacia AB, priority 1994, dated 1996).

Assays:
[1] = system: eye; test: Maximum reduction of intraocular pressure in cats after topical application; format: in vivo; conditions: for Intraocular pressure, Exp Eye / Maximum reduction of intraocular pressure, Difference (Exp Eye vs Cont Eye): 1-3 hours after application, mean ± SEM, n = 6
Method: (§1) Experiments were performed in cats and rabbits. The test compounds were administered topically to the eye. The compounds were tested by using a single dose of each concentration. The intraocular pressure in cats was measured with a pneumotonometer (Digilab Modular One, BioRad). Before the measurement the cornea was anaesthetized with 1-2 drops of oxibuprocain. The ocular irritation (discomfort) caused by the test compounds was assessed without anaesthesia in the same animals. The irritation was graded on an arbitrary scale 0-3, 0 indicating absence of irritation, and 3 indicating maximum irritation as obvious from complete lid closure. Surface hyperemia of the eye (redness of the eye) was evaluated in rabbits. The eye was photographed at regular intervals and the degree of hyperemia was evaluated from the color photographs in a masked way. The hyperemia was evaluated on an arbitrary scale 0-5, 0 indicating absence of hyperemia and 5 marked hyperemia and conjunctival chemosis. All compounds were formulated in physiologic saline using polysorbate 80 as solubilizer. The same volume of the vehicle only was applied topically on the contralateral control eye.
Maximum reduction of intraocular pressure in cats 1-3 hours after
application of different thioprostaglandin compounds (Mean ± SEM; n =

[2] = system: circular preparation of the guinea pig ileum; test: In vitro bioassay, guinea pig ileum circular preparation
Excerpt: (§2) In vitro bioassay studies of thioprostaglandins according to this invention have shown that such thioprostaglandins exert biological effects on several mammalian tissues and organ systems. […] These biological effects have no known relationship to the IOP lowering effects of these prostaglandins.

[3] = system: platelet aggregation; test: In vitro bioassay, platelet aggregation; format: cell-based
Excerpt: as §2

[4] = system: cat iris sphincter; test: In vitro bioassay, cat iris sphincter
Excerpt: as §2

[5] = system: eye; test: Ocular irritation (discomfort) after topical application, scale 0-3; format: in vivo, cats; conditions: for Maximum ocular irritation, Difference (experimental vs contralateral control eye): cats, topical, mean ± SEM, n = 6; for Ocular irritation grade (maximum irritation): same test system
Method: as §1
Maximum ocular irritation after topical
application of different thioprostaglandin compounds in
cats. The values represent the difference between the
experimental and contralateral control eyes (Mean ± SEM,

[6] = system: rat gastric fundus; test: In vitro bioassay, rat gastric fundus
Excerpt: as §2

[7] = system: bovine iris sphincter; test: In vitro bioassay, bovine iris sphincter
Excerpt: as §2

[8] = system: eye; test: Surface hyperemia of the eye after topical application, scale 0-5; format: in vivo, rabbits; conditions: 0.5 μg; for Maximum surface hyperemia of the eye, Difference (Exp Eye vs Cont Eye) / Maximum surface hyperemia of the eye, Exp Eye: rabbits, topical, mean ± SEM, n = 6; for Ocular surface hyperemia grade: same test system
Method: as §1
Maximum surface hyperemia of the eye after
topical application of different thioprostaglandins in
rabbits. (Mean ± SEM, n = 6).

Structure (SMILES) | Intraocular pressure, Exp Eye ([1]; 3 ug) [mmHg] | Maximum reduction of intraocular pressure, Difference (Exp Eye vs Cont Eye) ([1]; 3 ug) [mmHg] | Maximum ocular irritation, Difference (experimental vs contralateral control eye) ([5]; 3 μg) | Intraocular pressure, Exp Eye ([1]; 1 ug) [mmHg] | Maximum reduction of intraocular pressure, Difference (Exp Eye vs Cont Eye) ([1]; 1 ug) [mmHg] | Maximum surface hyperemia of the eye, Difference (Exp Eye vs Cont Eye) [8] | Maximum surface hyperemia of the eye, Exp Eye [8] | Maximum ocular irritation, Difference (experimental vs contralateral control eye) ([5]; 1 μg) | other results
CCCCC[C@H](O)/C=C/[C@H]1C(SCc2ccccc2)CC(=O)[C@@H]1C/C=C\CCCC(=O)OCc1ccccc1 (some centres unmarked) [Compound 3, 11-deoxy-11-thiobenzyl-PGE2 benzyl ester] | 14.7 ± -0.7 | -3.7 ± -1.3 | 0.08 ± -0.08 |  |  |  |  |  | Intraocular pressure, Exp Eye ([1]; 5 ug): 13.0 ± -0.4 mmHg; Maximum reduction of intraocular pressure, Difference (Exp Eye vs Cont Eye) ([1]; 5 ug): -3.8 ± -0.5 mmHg; 24 hour reduction of the intraocular pressure (in words) ([1]; 24 hour): Except for compound 3, all compounds caused 24 hour reduction of the intraocular pressure; Stimulation of the circular preparation of the guinea pig ileum [2]: stimulate; Effect on platelet aggregation [3]: affect platelet aggregation; Stimulation of the cat iris sphincter [4]: stimulate; Maximum ocular irritation, Difference (experimental vs contralateral control eye) ([5]; 5 μg): 1.33 ± -0.1; Stimulation of the rat gastric fundus [6]: stimulate; Stimulation of the bovine iris sphincter [7]: stimulate
CCCCC[C@H](O)/C=C/[C@H]1C(SCCC(=O)OCC)CC(=O)[C@@H]1C/C=C\CCCC(=O)OC (some centres unmarked) [Compound 5, 11-Deoxy-11-[3-thio-(1-ethylpropionate)] PGE2 methyl ester] | 11.5 ± -1.6 | -9.2 ± -1.2 | 0.58 ± -0.08 | 12.7 ± -1.0 | -9.5 ± -0.8 | 0.3 ± -0.2 | 1.1 ± -0.2 | 1.08 ± -0.2 | Reduction of intraocular pressure (in words) [1]: The strongest effect; Reduction of intraocular pressure at low dose (in words) ([1]; 1 μg): markedly reduced the pressure; Intraocular pressure, Exp Eye ([1]; 10 ug): 12.3 ± -1.3 mmHg; Maximum reduction of intraocular pressure, Difference (Exp Eye vs Cont Eye) ([1]; 10 ug): -10.0 ± -0.9 mmHg; Maximum ocular irritation, Difference (experimental vs contralateral control eye) ([5]; 10 μg): 2.00 ± -0.1
CCCCC[C@H](O)/C=C/[C@H]1[C@H](O)CC(=O)[C@@H]1C/C=C\CCCC(=O)OC(C)C [PGE2 -isopropyl ester, reference compound] |  |  |  |  |  |  |  |  | Ocular surface hyperemia grade [8]: ≥ 2.9 grade; Ocular irritation grade (maximum irritation) ([5]; 1 μg): 3 grade
CCCCC[C@H](O)/C=C/[C@H]1C(SCC(N)C(=O)OCC)CC(=O)[C@@H]1C/C=C\CCCC(=O)OCc1ccccc1 (some centres unmarked) [Compound 4] | 16.3 ± -0.7 | -4.3 ± -1.6 | 0.75 ± -0.1 |  |  |  |  |  | Intraocular pressure, Exp Eye ([1]; 10 ug): 14.0 ± -0.7 mmHg; Maximum reduction of intraocular pressure, Difference (Exp Eye vs Cont Eye) ([1]; 10 ug): -5.8 ± -1.1 mmHg; Stimulation of the circular preparation of the guinea pig ileum [2]: stimulate; Effect on platelet aggregation [3]: affect platelet aggregation; Stimulation of the cat iris sphincter [4]: stimulate; Maximum ocular irritation, Difference (experimental vs contralateral control eye) ([5]; 10 μg): 0.58 ± -0.08; Stimulation of the rat gastric fundus [6]: stimulate; Stimulation of the bovine iris sphincter [7]: stimulate
CCCCC[C@H](O)/C=C/[C@H]1C(Sc2ccccc2C(=O)OC)CC(=O)[C@@H]1C/C=C\CCCC(=O)OC (some centres unmarked) [Compound 7, 11-Deoxy-11-[thio-2-(methylbenzoate)-]PGE2 methyl ester] |  |  |  | 16.2 ± -1.3 | -4.3 ± -0.7 | 0.6 ± -0.2 | 1.2 ± -0.2 | 1.08 ± -0.2 | 
CCCCC[C@H](O)/C=C/[C@@H]1[C@@H](C/C=C\CCCC(=O)OC(C)C)[C@@H](O)C[C@H]1O [PGF2α -isopropyl ester, reference compound] |  |  |  |  |  |  |  |  | Ocular surface hyperemia grade [8]: ≥ 2.9 grade; Ocular irritation grade (maximum irritation) ([5]; 1 μg): 3 grade
CCCCC[C@H](O)/C=C/[C@H]1C(SCCO)CC(=O)[C@@H]1C/C=C\CCCC(=O)OC (some centres unmarked) [Compound 6, 11-Deoxy-11-(thio-1-ethanol)-PGE2 methyl ester] | 13.8 ± -0.9 | -6.0 ± -1.3 | 0.67 ± -0.1 | 14.7 ± -1.0 | -5.8 ± -1.0 | 0.8 ± -0.1 | 1.7 ± -0.1 | 0.92 ± -0.08 | 
